{"source": "patent US9217743B2", "about": "“Screening method utilizing thalidomide-targeting factor” (Tokyo Institute of Technology, priority 2009, dated 2015)", "key": {"CRBN": {"target": "CRBN (Homo sapiens, UniProt Q96SW2)", "sequence (Q96SW2 whole entry)": "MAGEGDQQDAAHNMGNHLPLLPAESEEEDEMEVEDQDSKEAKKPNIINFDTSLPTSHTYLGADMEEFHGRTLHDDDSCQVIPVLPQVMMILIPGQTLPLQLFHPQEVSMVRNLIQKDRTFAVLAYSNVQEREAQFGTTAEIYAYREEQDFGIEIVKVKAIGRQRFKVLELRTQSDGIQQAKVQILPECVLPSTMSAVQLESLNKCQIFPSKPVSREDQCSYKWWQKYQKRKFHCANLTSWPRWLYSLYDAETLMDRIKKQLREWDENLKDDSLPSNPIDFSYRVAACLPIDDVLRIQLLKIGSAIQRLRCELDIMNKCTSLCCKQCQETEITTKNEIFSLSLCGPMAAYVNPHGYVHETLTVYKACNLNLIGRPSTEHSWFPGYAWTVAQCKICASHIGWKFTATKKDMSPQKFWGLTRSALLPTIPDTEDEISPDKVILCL", "test": "Elution of CRBN from thalidomide-immobilized beads by test compound, Western blotting", "conditions": "for CRBN eluted from thalidomide-immobilized beads by the compound: 293T cell extracts, buffer containing 0.1 to 1 mM compound, one hour, Western blotting; for bindability with CRBN: concluded from elution from thalidomide-immobilized beads", "quoted_text": "Firstly, thalidomide-immobilized FG beads are prepared. The immobilized beads are mixed and incubated with extracts of CRBN-expressing cells or recombinant proteins for one hour or longer in a rotator at 5 rpm and 4° C. Then, after the beads are washed with a buffer, for example, a buffer containing a thalidomide derivative as a test substance is passed through the beads to see whether CRBN is eluted. Examples of a detection method include Western blotting, dot blotting, CBB staining, and silver staining."}, "[1]": {"tested_on": "multiple myeloma cell Kms12", "test": "Growth inhibition of multiple myeloma cells, Cell Count-Reagent SF", "type": "cell-based, human", "conditions": "48 hours, 37° C., 5% CO2", "experimental": "KMS-12 cells were incubated with thalidomide or 5HPP-33 (100 μM) for 48 hours at 37° C. in 5% CO2. For measurement of the number of the living cells, Cell Count-Reagent SF (Nacalai Tesque, Inc.) was added to culture media for 2 hours at the end of the 48 hours culture. The absorbance at 450 nm was measured.\nMultiple myeloma cell Kms12 were cultured in RPMI Medium 1640 containing 10% FBS. For treatment with drugs, the medium was adjusted to contain 2×10^5 Kms12 cells/ml and dispensed in 2 ml Eppendorf tubes in 2 ml aliquots. As the stock solution, thalidomide or 5HPP-33 were dissolved in dimethylsulfoxide (DMSO) at concentration of 100 mM and […] respectively. The stock solution was added to the cell suspension at 2 μl/2 ml, followed by gentle and thorough inversion mixing. Cell mixture was dispensed in a 96 well plate at 100 μl/well and cultured at 37° C. and 5% CO2 for 48 hours. For measurement of the number of the living cells, Cell Count-Reagent SF (Nacalai Tesque, Inc.) was added to culture media and incubated for 2 hours. The absorbance at 450 nm, which is correlate to the number, were measured by GloMax-Multi+ Detection System (Promega KK) For preparation of a calibration curve, 1×10^6, 3×10^5 and 1×10^5 Kms12 cells/ml were used. Defining the number of cells treated with the solvent as 100, the number of cells treated with the drugs were expressed as relative values."}, "DDB1": {"tested_on": "DDB1", "test": "Elution of DDB1 from thalidomide-immobilized beads by test compound, Western blotting", "conditions": "Example 6; 293T extracts; elution with 1 mM compound"}, "shh": {"tested_on": "shh", "test": "Whole-mount in situ hybridization of zebrafish fin buds", "type": "in vivo", "conditions": "AMO injected embryos", "excerpt": "(§1) To obtain a clue to the pathway(s) downstream of CRBN and thalidomide, the present inventors analyzed well-known key molecules in fin development. Sonic hedgehog (Shh) is expressed in the zone of polarizing activity (ZPA) and is responsible for anteroposterior patterning of the limb and fin (Cited Literature 27), whereas Fgf8 is expressed in the apical ectodermal ridge (AER) of the limb and fin and is necessary for outgrowth of the limb and fin along the proximodistal axis. […] Thus, an inhibitor of FGF8 production is a possible downstream target of thalidomide and the CRBN-containing E3 complex.\n(§2) This assay was carried out in accordance with Cited Literature 41. Antisense probe for zcrbn mRNA was directed against the 5′-coding region of 513 bp. Antisense probe for zcul4a was directed against the 3′ untranslated region (3′ UTR) of 590 bp. Probes for shh and fgf8 were kindly provided by Dr. Krauss and Dr. Thisse, respectively. To increase permeability of probes, fixed embryos were incubated with PBS containing 0.1% Tween-20 and […] proteinase K for two minutes at room temperature."}, "fgf8a": {"tested_on": "fgf8a", "test": "Whole-mount in situ hybridization of zebrafish fin buds", "type": "in vivo", "conditions": "AMO injected embryos", "excerpt": "as §1, §2"}, "zebrafish embryos": {"tested_on": "zebrafish embryos", "test": "Zebrafish embryo development, pectoral fins and otic vesicles", "type": "in vivo, zebrafish (Danio rerio)", "conditions": "for fin and otic vesicle development: AMO injected into one cell stage embryos"}}, "note": "“Also recorded” adds a separate entry of the source."}
{"compound": "CC(C)c1cccc(C(C)C)c1N1C(=O)c2ccc(O)cc2C1=O", "note": "[5HPP-33]", "values": [{"measurement": "CRBN eluted from thalidomide-immobilized beads by the compound", "setting": "CRBN", "value": "very little CRBN was eluted; also recorded: not eluted"}, {"measurement": "bindability with CRBN", "setting": "CRBN", "value": "low bindability and low and extremely low bindability"}, {"measurement": "proliferation of the multiple myeloma cell Kms12", "setting": "[1]", "value": "potent suppressive action; also recorded: potently suppressed; also recorded: growth inhibition"}]}
{"compound": "O=C1NC(=O)c2ccccc21", "note": "[phthalimide]", "values": [{"measurement": "CRBN eluted from thalidomide-immobilized beads by the compound", "setting": "CRBN", "value": "very little CRBN was eluted; also recorded: not eluted"}, {"measurement": "CRBN in the eluate fraction", "setting": "CRBN; Example 6, 293T extracts, elution with 1 mM compound", "value": "not detected"}, {"measurement": "bindability with CRBN", "setting": "CRBN", "value": "low bindability"}, {"measurement": "DDB1 in the eluate fraction", "setting": "DDB1", "value": "not detected"}]}
{"compound": "zcrbn-AMO: antisense morpholino oligo for zcrbn, 5′-AGAGCTGTAGCTGGTTCCCCATTTC-3′ (SEQ ID NO: 5) (all phosphorodiamidate morpholino (PMO))", "values": [{"measurement": "shh expression", "setting": "shh", "value": "no difference"}, {"measurement": "fgf8a expression", "setting": "fgf8a", "value": "reduced"}, {"measurement": "fin and otic vesicle development", "setting": "zebrafish embryos", "value": "exhibited defects"}, {"measurement": "reduction of the size of otic vesicles compared to wild type", "setting": "zebrafish embryos; AMO-injected embryos at 27 hpf", "value": 40, "unit": "%"}]}
{"compound": "zcul4a AMO: antisense morpholino oligo for zcul4a, 5′-CTGGTGCTGAACATCTTCTGCCATC-3′ (SEQ ID NO: 6) (all phosphorodiamidate morpholino (PMO))", "values": [{"measurement": "shh expression", "setting": "shh", "value": "no difference"}, {"measurement": "fgf8a expression", "setting": "fgf8a", "value": "reduced"}, {"measurement": "fin and otic vesicle development", "setting": "zebrafish embryos", "value": "caused defects"}, {"measurement": "size of otic vesicles, of the control size", "setting": "zebrafish embryos; knockdown embryos at 27 hpf", "value": 40, "unit": "%"}]}
